2 compounds from US20240343733A1, “COMPOUNDS FOR TARGETING DEGRADATION OF IRAK4 PROTEINS” (BIOGEN MA INC., priority 2021, published 2024) can be followed below.

For assay [1], the system named is IRAK4. Description: Pharmacodynamics (PD) in Male Cynomolgus Monkeys, IRAK4 quantitation in PBMCs by MSD. In kind it is in vivo. The following applies: male cynomolgus monkey PBMCs. As for the experimental part:
Assay 6. Pharmacodynamics (PD) in Male Cynomolgus Monkeys
For PBMC isolation, approximately 1 mL of blood sample was collected in a BD Vacutainer® EDTA Tubes (Catalog no. 36643, Becton, Dickinson and Co., Franklin Lakes, NJ, USA) with K2-EDTA and stored at room temperature (RT). The blood was diluted 1:1 with PBS at room temperature. The tube contents were mixed gently by pipetting up and down 5 times. The PBS/blood mixture was layered carefully on the top of 2 ml Ficoll® Paque Plus (Catalog no. 17-1440-03, Cytiva, Marlborough, MA, USA) in 15 mL falcon tubes, then centrifuged at RT for 30 minutes at 600 g with acceleration set at 6 and brake set at 0. The middle ‘cloudy’ interface between plasma and Ficoll® Paque Plus containing the PBMCs was transferred to a 15 mL tube and washed once with 10 mL of PBS, then centrifuged for 10 minutes at RT at 250 g. The supernatant was discarded without disturbing the cell pellet. If red blood cells were still present, 1 mL of lysis buffer was added, incubated for 2 minutes at RT, then 10 mL PBS was added to terminate lysis, and then centrifuged for 5 minutes at RT at 250 g. The supernatant was discarded without disturbing the cell pellet and stored at −80° C. until analysis.
For cell counting, the cell suspension was diluted 1:1 with Trypan Blue dye and mixed well. The cell numbers (live and dead) were counted, and cell viability calculated. The cell numbers and cell viability of each PBMC sample were recorded.
For sample preparation for MSD analysis, 2 million cells were subjected to lysis by 100 μL of RIPA lysis and extraction buffer (Catalog no 89900, ThermoScientific, Waltham, MA, USA) with phosphatase and protease inhibitors were added for 30 minutes at 4° C. To prepare RIPA lysis and extraction buffer with phosphatase and protease inhibitors, 1 tablet of cOmplete™, 1 tablet of PhosSTOP™, 100 μL each of Phosphatase Inhibitor Cocktail 2 and 3 (all catalog no. 11836153001, 4906845001, P5726 and P0044 respectively, Sigma Aldrich, St. Louis, MO, USA) were mixed with 10 mL RIPA buffer. The lysed PBMC samples were stored at −80° C. until analysis. Samples were completely thawed before being subjected to MSD analysis. The data was normalized using protein concentration and PBMC cell numbers, separately, for comparison.
For biomarker detection of IRAK4 in samples, MSD® or Meso Scale Discovery® biomarker assays technology was utilized, which is an ELISA-based method.
For the capture or coating step, 100 μL of IRAK4 Monoclonal Antibody (2H9) (Fisher, Catalog no. MA5-15883) was added to 96 well MSD multi-array 96 well plate (MSD Catalog no. L15XA-3, MSD multi-array 96 well plate). The plate was sealed and incubated overnight at 2-8° C. The plate was washed 5×300 μL/well with tris buffered saline wash buffer. 300 μL of blocking Buffer (3% BSA in 0.1% PBST) (Wuxi, Catalog no. BB-20211112-YJC) was added. The plate was sealed and incubated for 2 h±10 minutes at room temperature without shaking. The plate was washed 5×300 μL/well with tris buffered saline wash buffer. 100 μL of standard and samples were added into each well. The plate was sealed and incubated for 1 h 10 minutes at room temperature with shaking at 500 rpm. The plate was washed 5×300 μL/well with tris buffered saline wash buffer. 100 μL of detection solution containing IRAK4 antibody (Catalog no. 4363, Cell Signaling Technology, Danvers, MA, USA) was added into each well. The plate was sealed and incubated for 1 h 10 min at RT with shaking at 500 RPM. The plate was washed 5×300 μL/well with tris buffered saline wash buffer. 100 μL of sulfotag solution containing Sulfo-Tag labeled anti-rabbit antibody (Goat) (Catalog no. R32AB-1, Meso Scale Diagnostics, Rockville, MD, USA) was added into each well. The plate was sealed and incubated for 1 h+10 minutes at room temperature with shaking at 500 RPM. The plate was washed 5×300 […] with tris buffered saline wash buffer. […]

Assay [2] concerns the target T1, IRAK4 (Homo sapiens, UniProt Q9NWZ3).
T1 construct: 293Tcells expressing HiBiT-tagged IRAK4 were then added into 384-well plates
T1 sequence (Q9NWZ3 1-460): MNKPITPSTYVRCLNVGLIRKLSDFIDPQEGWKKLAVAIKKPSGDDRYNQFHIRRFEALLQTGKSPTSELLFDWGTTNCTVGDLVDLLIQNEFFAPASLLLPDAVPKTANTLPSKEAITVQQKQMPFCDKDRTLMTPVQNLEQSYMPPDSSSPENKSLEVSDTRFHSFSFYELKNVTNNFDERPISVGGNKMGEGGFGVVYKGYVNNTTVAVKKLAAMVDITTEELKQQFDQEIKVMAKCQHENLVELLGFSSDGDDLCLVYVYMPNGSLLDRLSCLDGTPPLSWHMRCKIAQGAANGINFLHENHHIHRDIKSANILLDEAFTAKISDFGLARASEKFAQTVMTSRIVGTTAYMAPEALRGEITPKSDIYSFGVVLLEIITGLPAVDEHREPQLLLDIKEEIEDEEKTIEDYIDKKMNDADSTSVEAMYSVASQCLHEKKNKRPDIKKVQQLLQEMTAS
Description: IRAK4 Degradation Assay, HiBiT Method. In kind it is cell-based. The following applies: 293T cells expressing HiBiT-tagged IRAK4, 6 hours. In short, it runs like this: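 Luminescent read-out with Nano-Glo HiBiT lytic reagent after 6 h compound exposure at 37 °C. Cells were HiBiT-IRAK4 knock-in 293T (C-terminal tag), 10,000 per well. Compounds ran as 11-point half-log dilutions from […] highest dose, duplicate wells; DMSO served as negative control.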
On the technique in general: With HiBiT, luminescence reflects the tagged protein that the partner subunit can reach.

In general, DC50 refers to the concentration at which degradation of the target reaches its halfway point. For `CC(C)Oc1cc2nc([C@H]3CC[C@H](CN4CCC(c5ccc6c(c5)n(C)c(=O)n6C5CCC(=O)NC5=O)CC4)CC3)cn2cc1C(=O)Nc1cnn2cccnc12` (some centres unmarked) [Compound 48, 2-[4-[[4-[1-(2,6-dioxo-3-piperidyl)-3-methyl-2-oxo-benzimidazol-5-yl]-1-piperidyl]methyl]cyclohexyl]-7-isopropoxy-N-pyrazolo[1,5-a]pyrimidin-3-yl-imidazo[1,2-a]pyridine-6-carboxamide], the “IRAK4 change from vehicle” value is listed as −50% with IRAK4 [1] (time 2 h); −87% in the assay with IRAK4 [1] (time 8 h); −96% in the assay with IRAK4 [1] (time 24 h); −94% with IRAK4 [1] (time 48 h); −94% with IRAK4 [1] (time 72 h); −87% in the assay on IRAK4 [1] (time 96 h). At IRAK4 [2], this compound returned a DC50 of under 10 nM.

For `CC(C)Oc1cc2nc([C@H]3CC[C@H](CN4CCC(c5ccc6c(c5)n(C)c(=O)n6C5CCC(=O)NC5=O)CC4)CC3)cn2cc1C(=O)Nc1cccn([C@H]2C[C@H]2F)c1=O` (stereo partly drawn) [Compound 169, 2-((1R,4S)-4-((4-(1-(2,6-dioxopiperidin-3-yl)-3-methyl-2-oxo-2,3-dihydro-1H-benzo[d]imidazol-5-yl)piperidin-1-yl)methyl)cyclohexyl)-N-(1-((1S,2R)-2-fluorocyclopropyl)-2-oxo-1,2-dihydropyridin-3-yl)-7-isopropoxyimidazo[1,2-a]pyridine-6-carboxamide], the “IRAK4 change from vehicle” value is reported as −62% in the assay on IRAK4 [1] (time 2 h); −83% in the assay on IRAK4 [1] (time 8 h); −97% in the assay on IRAK4 [1] (time 24 h); −97% in the assay on IRAK4 [1] (time 48 h); −94% in the assay on IRAK4 [1] (time 72 h); −90% in the assay on IRAK4 [1] (time 96 h). For the same compound, the DC50 at IRAK4 [2] was under 10 nM.
